{
  "source": "paper PMC4526861",
  "about": "“Inhibition of protein kinase C by isojacareubin suppresses hepatocellular carcinoma metastasis and induces apoptosis in vitro and in vivo” (Scientific Reports, 2015)",
  "key": {"HepG2 cells [1]": {"system": "HepG2 cells", "test": "Cell proliferation assay (CCK-8), HepG2", "assay_type": "cell-based, human", "experimental": "(§1) The human HCC cell lines QGY-7703, SMMC-7721 and HepG2 and the liver cell line QSG-7701 were supplied by the Cell Resource Center, Institute of Life Sciences, Chinese Academy of Medical Science. QGY-7703, SMMC-7721 and QSG-7701 cells were cultured in 1640 medium (Gibco), and HepG2 cells were cultured in DMEM medium (Gibco) at 37 °C in moist air supplemented with 5% CO2. All media were supplemented with 10% fetal bovine serum (FBS) and 100 Units/mL of penicillin/streptomycin.\n(§2) The cell viability assay was performed as previously reported using a Cell Counting Kit-8 (CCK-8; Dojindo, Kumamoto, Japan)[33][34]. The relative cell viability was presented as % inhibition and calculated using the following formula: […]"}, "SMMC-7721 cells": {"system": "SMMC-7721 cells", "test": "Cell proliferation assay (CCK-8), SMMC-7721", "assay_type": "cell-based, human", "conditions": "mean ± SD, at least three independent experiments", "experimental": "as §1, §2"}, "HepG2 cells [2]": {"system": "HepG2 cells", "test": "Apoptosis assay, Annexin V-FITC/PI flow cytometry", "assay_type": "cell-based, human", "conditions": "48 h", "experimental": "To further explore the potential mechanisms of the antiproliferative effects induced by compound 7 and ISJ, Annexin V-FITC/PI double staining was performed to quantify cellular apoptosis by flow cytometry. HepG2 cells were cultured for 48 h in the absence or presence of compound 7 or ISJ at different concentrations (5 or 15 μM).\nHepG2 cells were seeded in six-well plates (5 × 10^5 cells/mL) for 24 h and then treated with various amounts of the compounds or 1% DMSO (as control). After 48 h, the cells floating in the medium were collected, and the adherent cells were detached with 0.05% trypsin, washed twice with cold PBS, and centrifuged at 1000 rpm for 5 min at 4 °C. Subsequently, HepG2 cells were gently resuspended in the binding buffer. Thereafter, the cells were stained using the Annexin V-FITC/PI apoptosis detection kit (BD Biosciences, San Jose, CA, USA). After incubation at room temperature for 15 min in the dark, the apoptotic cells were immediately analyzed by flow cytometry (FACS Calibur)."}, "HepG2 cells [3]": {"system": "HepG2 cells", "test": "Wound healing (migration) assay", "assay_type": "cell-based, human", "conditions": "10 μM, 24 h", "experimental": "Cell migration and invasion potencies were studied using wound healing and Matrigel invasion assays. The wound healing assay was performed by scratching the cell surface with a 10 μL pipette tip. Then, the cells were treated with compound 7 and ISJ (10 μM) and incubated for 24 h before being photographed under a microscope (DMI3000 B, Leica). Wound closure was evaluated using ImageJ software. Invasion through a Matrigel-coated filter was measured in transwell chambers (Corning Costa) as described previously, with minor modifications. Briefly, HepG2 Cells (2 × 10^5/well) were suspended in serum-free medium and added to the upper chamber of the Matrigel plate. FBS (10%) was used as the chemoattractant in the lower chamber. After incubation for 24 h, the non-invading cells were removed from the upper surface of the insert membrane with a cotton swab. The invading cells were fixed with methanol and stained with Giemsa (Sigma). Cells in five randomly selected fields were photographed, and the numbers of cells that crossed the membrane were counted."}, "PKCα": {"target": "T1, PKCα (Homo sapiens, UniProt P17252)", "T1 construct": "Endogenous cPKC (PKCα) and nPKC (PKCδ, PKCε and PKCμ) in HepG2 lysates were pulled down; endogenous in cells; host or cells: HepG2", "test": "Cell-based pull-down assay, PKCα", "assay_type": "binding", "conditions": "HepG2 lysates", "experimental": "(§3) To identify whether ISJ and compound 7 target PKC in cells, we performed pull-down experiments using ISJ- and compound 7-coupled Sepharose beads with HepG2 cell lysates. Endogenous cPKC (PKCα) and nPKC (PKCδ, PKCε and PKCμ) in HepG2 lysates were pulled down by ISJ-coupled CNBr-activated Sepharose 4B beads (Fig. 5a).\n(§4) The control beads were prepared by incubating the beads with DMSO. Proteins (500 μg) from lysed HepG2 cells were mixed with either the control beads, compound 7-coupled beads, or ISJ-coupled beads (100 μL) in reaction buffer [50 mM Tris (pH 7.5), 5 mM EDTA, 150 mM NaCl, 1 mM DTT, 0.01% NP-40, 2 μg/mL BSA, 1 mM PMSF, 1% protease inhibitor mixture]. After incubation with gentle rocking overnight at 4 °C, the beads were washed 5 times with washing buffer [50 mM Tris (pH 7.5), 5 mM EDTA, 150 mM NaCl, 1 mM DTT, 0.01% NP-40, 1 mM PMSF], and binding was visualized by western blotting."}, "PKCδ": {"target": "T2, PKCδ (Homo sapiens, UniProt Q05655)", "T2 construct": "Endogenous cPKC (PKCα) and nPKC (PKCδ, PKCε and PKCμ) in HepG2 lysates were pulled down; endogenous in cells; host or cells: HepG2", "T2 sequence (Q05655 whole entry)": "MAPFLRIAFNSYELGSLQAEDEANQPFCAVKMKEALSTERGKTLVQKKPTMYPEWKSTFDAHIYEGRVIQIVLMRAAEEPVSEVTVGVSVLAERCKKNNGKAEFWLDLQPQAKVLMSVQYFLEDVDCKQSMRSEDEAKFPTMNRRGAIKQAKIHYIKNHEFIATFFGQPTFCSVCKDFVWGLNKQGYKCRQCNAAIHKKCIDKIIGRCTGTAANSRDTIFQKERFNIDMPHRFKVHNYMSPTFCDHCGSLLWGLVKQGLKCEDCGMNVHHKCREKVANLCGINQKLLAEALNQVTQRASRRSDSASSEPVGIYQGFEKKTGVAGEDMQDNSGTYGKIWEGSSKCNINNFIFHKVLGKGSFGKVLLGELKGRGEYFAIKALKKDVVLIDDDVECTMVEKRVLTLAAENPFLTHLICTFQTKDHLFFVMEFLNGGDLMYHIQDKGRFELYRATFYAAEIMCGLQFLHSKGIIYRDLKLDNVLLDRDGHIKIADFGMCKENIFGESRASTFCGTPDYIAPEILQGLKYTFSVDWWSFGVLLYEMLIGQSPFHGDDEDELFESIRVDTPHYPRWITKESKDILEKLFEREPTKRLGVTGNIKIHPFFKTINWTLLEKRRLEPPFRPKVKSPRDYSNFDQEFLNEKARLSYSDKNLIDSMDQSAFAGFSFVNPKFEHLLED", "test": "Cell-based pull-down assay, PKCδ", "assay_type": "binding", "conditions": "HepG2 lysates", "experimental": "as §3, §4"}, "PKCμ": {"target": "T3, PKCμ (Homo sapiens, UniProt Q15139)", "T3 construct": "Endogenous cPKC (PKCα) and nPKC (PKCδ, PKCε and PKCμ) in HepG2 lysates were pulled down; endogenous in cells; host or cells: HepG2", "T3 sequence (Q15139 1-912)": "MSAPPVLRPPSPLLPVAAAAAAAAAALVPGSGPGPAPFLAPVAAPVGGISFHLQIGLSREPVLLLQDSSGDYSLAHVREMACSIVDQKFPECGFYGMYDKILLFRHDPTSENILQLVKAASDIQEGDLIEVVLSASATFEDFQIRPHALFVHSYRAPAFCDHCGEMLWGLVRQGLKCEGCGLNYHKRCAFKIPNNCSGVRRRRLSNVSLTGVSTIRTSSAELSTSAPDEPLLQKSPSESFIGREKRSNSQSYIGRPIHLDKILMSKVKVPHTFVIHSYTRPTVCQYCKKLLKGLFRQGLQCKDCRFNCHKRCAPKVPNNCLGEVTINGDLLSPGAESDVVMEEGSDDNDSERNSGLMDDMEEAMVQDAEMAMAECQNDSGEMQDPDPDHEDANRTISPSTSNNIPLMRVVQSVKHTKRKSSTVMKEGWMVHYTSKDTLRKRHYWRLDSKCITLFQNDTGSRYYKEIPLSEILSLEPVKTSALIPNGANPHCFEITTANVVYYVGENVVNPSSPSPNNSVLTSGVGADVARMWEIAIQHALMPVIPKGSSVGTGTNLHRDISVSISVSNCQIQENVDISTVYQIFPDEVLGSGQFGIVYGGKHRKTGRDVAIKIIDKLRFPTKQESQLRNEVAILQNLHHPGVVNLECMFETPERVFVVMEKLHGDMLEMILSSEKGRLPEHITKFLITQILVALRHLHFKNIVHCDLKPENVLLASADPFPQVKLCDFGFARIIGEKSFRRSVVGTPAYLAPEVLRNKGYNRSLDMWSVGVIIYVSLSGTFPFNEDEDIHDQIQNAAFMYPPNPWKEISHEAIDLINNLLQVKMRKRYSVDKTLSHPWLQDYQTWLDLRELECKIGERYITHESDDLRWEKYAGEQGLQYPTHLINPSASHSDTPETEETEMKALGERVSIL", "test": "Cell-based pull-down assay, PKCμ", "assay_type": "binding", "conditions": "HepG2 lysates", "experimental": "as §3, §4"}, "[4]": {"system": "methicillin-resistant Staphylococcus aureus (MRSA)", "set-up": "method as in PMID 22942699", "conditions": "cited from earlier work"}},
  "data": [
    {"substance": "Isojacareubin [ISJ]", "values": [
      {"measurement": "Inhibitory Ratio (%) HepG2", "setting": "HepG2 cells [1]; 50 μM", "value": 91.54, "unit": "%"},
      {"measurement": "IC50", "setting": "HepG2 cells [1]; mean ± SD, at least three independent experiments", "value": "2450 ± 230", "unit": "nM"},
      {"measurement": "IC50", "setting": "SMMC-7721 cells", "value": "1630 ± 50", "unit": "nM"},
      {"measurement": "number of apoptotic cells compared to the control group", "setting": "HepG2 cells [2]; 5 μM", "value": "did not alter"},
      {"measurement": "percentage of apoptotic cells", "setting": "HepG2 cells [2]; 15 μM", "value": "increased significantly"},
      {"measurement": "decrease of HepG2 cell migration compared to control", "setting": "HepG2 cells [3]", "value": 77.8, "unit": "%"},
      {"measurement": "pull-down of endogenous PKCα by compound-coupled Sepharose 4B beads", "setting": "PKCα", "value": "pulled down"},
      {"measurement": "pull-down of endogenous PKCδ by compound-coupled Sepharose 4B beads", "setting": "PKCδ", "value": "pulled down"},
      {"measurement": "pull-down of endogenous PKCμ by compound-coupled Sepharose 4B beads", "setting": "PKCμ", "value": "pulled down"},
      {"measurement": "antibacterial activity against MRSA", "setting": "[4]", "value": "potent antibacterial compound"}
    ]}
  ]
}
